This is an account of results in US8993594B2, “Isoquinolin-1(2H)-one derivatives as PARP-1 inhibitors” (Nerviano Medical Sciences S.R.L., priority 2009, dated 2015).

Broadly, the IC50 is the concentration needed to halve the response being measured. A word on the Kd: it is the constant that tells how readily two partners part at equilibrium. By AUC is commonly meant the area under the concentration-time curve, a measure of exposure. The low end stands for less exposure, the high end for more exposure.

The target of one data set is PARP-1 FL (Homo sapiens, UniProt P09874). Put plainly: Fluorescence polarization probe displacement assay. Type of data set: binding. Particulars: for DC50: half maximal displacement concentration. (Polarisation of emitted light reports the rotation of a fluorescent probe.)
Sequence of PARP-1 FL (P09874 whole entry): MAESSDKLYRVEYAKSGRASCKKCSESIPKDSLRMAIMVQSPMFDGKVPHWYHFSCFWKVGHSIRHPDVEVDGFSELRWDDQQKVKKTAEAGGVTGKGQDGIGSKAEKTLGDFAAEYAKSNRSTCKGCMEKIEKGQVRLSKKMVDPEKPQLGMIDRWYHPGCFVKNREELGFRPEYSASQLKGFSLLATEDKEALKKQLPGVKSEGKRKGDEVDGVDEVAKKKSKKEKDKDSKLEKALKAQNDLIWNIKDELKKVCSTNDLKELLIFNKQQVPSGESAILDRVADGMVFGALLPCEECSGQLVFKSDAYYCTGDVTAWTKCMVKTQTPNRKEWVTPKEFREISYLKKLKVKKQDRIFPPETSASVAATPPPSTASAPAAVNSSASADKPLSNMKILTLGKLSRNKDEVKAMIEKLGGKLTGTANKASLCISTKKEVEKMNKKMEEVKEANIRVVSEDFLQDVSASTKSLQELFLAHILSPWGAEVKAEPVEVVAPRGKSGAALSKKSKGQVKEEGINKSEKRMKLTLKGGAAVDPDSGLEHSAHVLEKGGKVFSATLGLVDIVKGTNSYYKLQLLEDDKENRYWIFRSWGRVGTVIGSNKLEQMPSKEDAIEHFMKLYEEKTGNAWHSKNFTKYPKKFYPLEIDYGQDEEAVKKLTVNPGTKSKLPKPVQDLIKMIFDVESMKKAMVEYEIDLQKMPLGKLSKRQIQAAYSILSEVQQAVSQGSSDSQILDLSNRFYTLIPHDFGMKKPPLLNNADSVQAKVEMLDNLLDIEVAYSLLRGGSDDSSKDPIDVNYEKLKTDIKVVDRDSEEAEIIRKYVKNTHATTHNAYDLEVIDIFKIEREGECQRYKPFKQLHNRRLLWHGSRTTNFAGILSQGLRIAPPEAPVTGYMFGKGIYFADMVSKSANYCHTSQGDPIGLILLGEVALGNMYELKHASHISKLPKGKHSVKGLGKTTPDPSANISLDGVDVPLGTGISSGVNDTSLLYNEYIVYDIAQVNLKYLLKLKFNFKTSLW
The next data set has as its target PARP-2 FL (Homo sapiens, UniProt Q9UGN5). Put plainly: Fluorescence polarization probe displacement assay. Type of data set: binding. Particulars: for DC50: compound P1 as the probe.
In a further data set the target is T1, PARP-3 FL (Homo sapiens, UniProt Q9Y6F1).
T1 sequence (Q9Y6F1 1-533): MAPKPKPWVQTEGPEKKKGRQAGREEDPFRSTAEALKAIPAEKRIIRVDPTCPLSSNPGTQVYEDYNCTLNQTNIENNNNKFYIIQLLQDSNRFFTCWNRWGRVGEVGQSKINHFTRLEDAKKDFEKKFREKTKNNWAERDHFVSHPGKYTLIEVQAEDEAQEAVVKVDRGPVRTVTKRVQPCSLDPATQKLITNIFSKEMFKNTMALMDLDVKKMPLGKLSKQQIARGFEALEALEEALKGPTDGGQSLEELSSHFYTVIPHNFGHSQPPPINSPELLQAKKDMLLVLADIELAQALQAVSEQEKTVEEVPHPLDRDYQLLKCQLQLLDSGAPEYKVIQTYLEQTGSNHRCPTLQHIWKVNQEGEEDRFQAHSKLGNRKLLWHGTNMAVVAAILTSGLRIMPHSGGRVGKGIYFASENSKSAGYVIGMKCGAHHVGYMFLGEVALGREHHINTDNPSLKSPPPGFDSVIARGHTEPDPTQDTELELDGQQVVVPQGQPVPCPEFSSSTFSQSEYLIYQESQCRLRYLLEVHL
Kind of data set: Fluorescence polarization probe displacement assay. The class given is binding. Particulars: compound P1 as the probe.

The test system of data set [1] is hydrogen peroxide induced PAR formation in HeLa cells. Put plainly: Cellular PAR assay (inhibition of hydrogen peroxide induced PAR formation). Type of data set: cell-based. Particulars: Homo sapiens, 0.1 mM hydrogen peroxide 15 min.
Experimental: Compounds potencies were evaluated by measuring the inhibition of poly (ADP-ribose) (PAR) chains formation as a marker for PARP-1 inhibition.
Cellular activity of PARP-1 inhibitors was assessed by measuring the inhibition of the hydrogen peroxide induced PAR formation in HeLa cells (ECACC). Cellular PAR levels were measured by immunocytochemistry and quantified using an ArrayScan vTi instrument (Cellomics Thermo Scientific).
Studies were performed as follows: 6000 cells/well were seeded in 96 well plates (Perkin Elmer) in MEM/10% FCS and incubated for 24 hours at 37° C., 5% carbon dioxide. Test compounds were then added at the required concentration for 30′. […] Concentration curves were prepared in MEM/10% FCS from compound stocks in DMSO and final DMSO concentration was 0.002% (v/v). Duplicate wells for each concentration point were prepared with a typical highest compound concentration of 20 μM and serial dilution 1:3. […] Non-specific binding sites were blocked by incubating wells for 30 min in PBS containing 5% (w/v) FBS 0.05% tween20. […] After washing further 3 times in PBS, cellular PAR immunoreactivity was assessed using the ArrayScan vTi instrument, with a Zeiss 10×0.5 N.A. objective, and applying the Cytotoxicity.V3 algorithm (Cellomics/Thermo Fisher) with a XF100 filter. At least 10 fields, corresponding to at least 900 cells, were read for each well.
The following formula is used: IC50=Bottom+(Top−Bottom)/(1+10^((Log EC50−X))); X is the logarithm of concentration. IC50 is the response; IC50 starts at Bottom and goes to Top with a sigmoid shape.
A short description of data set [2]: Pharmacokinetics and oral bioavailability in the mouse. The class given is in vivo. Particulars: for F on AUC: 10 mg/kg, ratio of oral to IV dose-normalized plasma AUC; for clearance / Vd / AUC / half-life: male, Balb Nu/Nu, plasma, mean value; for clearance / Vd: 10 mg/kg intravenous bolus; for clearance: read-out: CL(IV bolus); for Vd: read-out: Vdss (IV bolus); for AUC / half-life: 10 mg/kg oral; for half-life: read-out: T½ (oral) (converted).
Experimental: The compounds were formulated in 10% tween 80/dextrose for intravenous bolus administration while oral administrations were performed using the compounds formulated in 0.5% methylcellulose. A single administration at the dose of 10 mg/kg was given and three male animals for each route were used. […] Plasma samples were prepared by plasma proteins precipitation adding 200 µl of methanol to 10 µl of plasma in a 96 well plate. […] The supernatant was considered as final extract and injected onto the LC-MS-MS system (HPLC system: Hewlett Packard 1100 series using Atlantis HILIC Silica 50*2.1 mm 5.0 μM analytical column; MS instrument: Perkin Elmer SCIEX API 2000 and ionization performed with Turbo Ion Spray in positive ion mode). Lower limit of quantification is 5.0 ng/ml, upper limit of quantification is 10000 ng/ml. […] Non-compartmental method (linear trapezoidal rule and linear regression analysis of natural log-transformed plasma concentrations vs. time data) was used. After intravenous dosing, C0 was set equal to C0.083, Absolute bioavailability (F) was calculated from the ratio of average oral to IV (intravenous) dose-normalized plasma AUC (area under curve) values.

Molecules are shown by their SMILES. Where a name gives a salt, the structure may show the parent alone.

Sequence of PARP-2 FL (Q9UGN5 whole entry): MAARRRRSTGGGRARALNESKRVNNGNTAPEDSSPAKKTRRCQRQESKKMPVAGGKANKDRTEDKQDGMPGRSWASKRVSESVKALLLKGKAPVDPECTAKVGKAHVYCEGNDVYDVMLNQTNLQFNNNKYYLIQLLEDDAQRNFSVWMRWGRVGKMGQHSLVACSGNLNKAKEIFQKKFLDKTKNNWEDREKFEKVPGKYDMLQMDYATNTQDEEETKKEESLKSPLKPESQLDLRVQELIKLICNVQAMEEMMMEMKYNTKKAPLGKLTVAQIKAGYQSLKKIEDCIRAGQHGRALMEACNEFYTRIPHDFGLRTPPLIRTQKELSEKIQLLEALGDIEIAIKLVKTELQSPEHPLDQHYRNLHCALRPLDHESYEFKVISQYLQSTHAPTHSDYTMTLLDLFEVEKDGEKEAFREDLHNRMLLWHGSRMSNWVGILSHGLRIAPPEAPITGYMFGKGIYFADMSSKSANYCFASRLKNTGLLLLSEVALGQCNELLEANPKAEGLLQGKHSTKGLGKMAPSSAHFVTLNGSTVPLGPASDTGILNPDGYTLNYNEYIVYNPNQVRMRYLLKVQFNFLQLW
Experimental for PARP-1 FL: (§1) Affinity of the tested compounds and their selectivity with respect to the different PARP isoforms of interest was quantified in a displacement assay.
(§2) In all of the experiments, the polarization signal was measured using a Saphire2 plate reader (Tecan). Data analysis was performed using Dynafit software. In particular, titration data were fitted to the following equilibria: Enzyme+probe <==> Complex Enzyme-probe, while displacement data were fitted to the following equilibria: Enzyme+probe <==> Complex Enzyme-probe, Enzyme+Compound <==> Complex Enzyme-Compound, whereby binding of probe and compound on the enzyme are mutually exclusive (pure competitive mechanism). Displacement data were also fitted using Excel spreadsheet (Microsoft Inc. Seattle, USA) to a four parameter logistic model (4PL), or Hill-Slope model to calculate DC50s where the DC50 value represents the compound concentration at which the polarization signal is diminished by 50% compared to untreated controls.
(§3) In agreement, affinity binding constants (KD) were determined by fitting with a pure competitive mechanism. KD values are the average of three independent experiments.
Experimental for PARP-2 FL: as §1, §2, §3
Experimental for PARP-3 FL: as §1, §2, §3

Turning to `NCCCOc1c(-c2ccccc2)[nH]c(=O)c2cc(F)ccc12` [Compound 86, 4-(3-aminopropoxy)-7-fluoro-3-phenylisoquinolin-1(2H)-one hydrochloride], the DC50 at PARP-1 FL is < 0.25 µM; at PARP-2 FL, 4.72 µM; at PARP-3 FL, 0.33 µM. The IC50 in data set [1] is 0.54 µM.

Take `NCCOc1c(-c2cccc(Cl)c2)[nH]c(=O)c2cc(F)ccc12` [Compound 50, 4-(2-Amino-ethoxy)-3-(3-chloro-phenyl)-7-fluoro-2H-isoquinolin-1-one hydrochloride]: the equilibrium dissociation constant (Kd) on PARP-1 FL was < 0.03 µM. The DC50 on PARP-1 FL is < 0.25 µM; on PARP-2 FL, 3.3 µM; at PARP-3 FL it was 0.33 µM. Besides, in data set [1], the 50% inhibitory concentration (IC50) is 0.08 µM.

As to `COc1cccc(-c2[nH]c(=O)c3cc(F)ccc3c2OCCCN2CCCCC2)c1` [Compound 43, 7-Fluoro-3-(3-methoxy-phenyl)-4-(3-piperidin-1-yl-propoxy)-2H-isoquinolin-1-one hydrochloride], the results for the Kd at PARP-1 FL and at PARP-2 FL were 0.04 µM and 2.02 µM, respectively. The DC50 at PARP-1 FL is < 0.25 µM; at PARP-2 FL it was 4.21 µM; at PARP-3 FL it was 2.52 µM. Further, the IC50 in data set [1] was 0.09 µM.

On to `O=c1[nH]c(-c2cccc(Cl)c2)c(OCCCN2CCCCC2)c2ccccc12` [Compound 44, 3-(3-Chloro-phenyl)-4-(3-piperidin-1-yl-propoxy)-2H-isoquinolin-1-one], for which the Kd at PARP-1 FL was < 0.03 µM; on PARP-2 FL, 0.4 µM. For the same compound, the DC50 at PARP-1 FL is < 0.25 µM; at PARP-2 FL, 0.7 µM; on PARP-3 FL it was 1.23 µM. Also, the midpoint of inhibition in data set [1], the IC50, lay at 0.13 µM.

As for `O=c1[nH]c(-c2ccccc2)c(OCCCNCc2ccccc2)c2ccc(F)cc12` [Compound 87, 4-[3-(benzylamino)propoxy]-7-fluoro-3-phenylisoquinolin-1(2H)-one], the DC50 is < 0.25 µM on PARP-1 FL, > 10 µM at PARP-2 FL and 1.11 µM on PARP-3 FL. Besides, in data set [1], the IC50 was determined as 0.4 µM.

For `CN(C)CCOc1c(-c2ccccc2)[nH]c(=O)c2cc(F)ccc12` [Compound 84, 4-[2-(dimethylamino)ethoxy]-7-fluoro-3-phenylisoquinolin-1(2H)-one], the figures for the DC50 on PARP-1 FL, at PARP-2 FL and on PARP-3 FL were < 0.25 µM, 3.86 µM and 1.11 µM, respectively. In data set [1], inhibition was half-maximal at 0.57 µM (IC50).

`NCCOc1c(-c2cccc(O)c2)[nH]c(=O)c2cc(F)ccc12` [Compound 47, 4-(2-Amino-ethoxy)-7-fluoro-3-(3-hydroxy-phenyl)-2H-isoquinolin-1-one]: the dissociation constant Kd on PARP-1 FL was < 0.03 µM. In addition, the DC50 at PARP-1 FL is < 0.25 µM; on PARP-2 FL it was 0.51 µM; at PARP-3 FL, 0.22 µM. This compound also gave an IC50 in data set [1] of 0.1 µM.

With `Cc1cccc2c(=O)[nH]c(-c3ccccc3)c(OCCN)c12` [Compound 49, 4-(2-Amino-ethoxy)-5-methyl-3-phenyl-2H-isoquinolin-1-one hydrochloride], the Kd at PARP-1 FL is < 0.01 µM. For the same compound, the DC50 on PARP-1 FL was < 0.25 µM; at PARP-2 FL, 0.97 µM; at PARP-3 FL, 0.2 µM. Also, in data set [1], 0.09 µM corresponded to half-maximal inhibition (IC50).

With `NCCOc1c(-c2ccc(O)cc2)[nH]c(=O)c2ccccc12` [Compound 26, 4-(2-Amino-ethoxy)-3-(4-hydroxy-phenyl)-2H-isoquinolin-1-one], the Kd at PARP-1 FL is < 0.01 µM; on PARP-2 FL, 0.33 µM. In addition, the DC50 at PARP-1 FL was < 0.25 µM; on PARP-2 FL, 0.68 µM; at PARP-3 FL, 0.35 µM. Further, in data set [1], the IC50 turned out to be 0.23 µM.

Turning to `O=c1[nH]c(-c2cccc(O)c2)c(OCCCN2CCCCC2)c2ccc(F)cc12` [Compound 45, 7-Fluoro-3-(3-hydroxy-phenyl)-4-(3-piperidin-1-yl-propoxy)-2H-isoquinolin-1-one hydrochloride], the figures for the Kd at PARP-1 FL and on PARP-2 FL were < 0.03 µM and 0.12 µM, respectively. Also, the figures for the DC50 at PARP-1 FL, at PARP-2 FL and at PARP-3 FL were < 0.25 µM, 0.42 µM and 0.25 µM, respectively. The compound also had an IC50 in data set [1] of 0.28 µM.

For the compound `Cl.NCCOc1c(-c2cccc(Cl)c2)[nH]c(=O)c2ccccc12` [Compound 48, 4-(2-Amino-ethoxy)-3-(3-chloro-phenyl)-2H-isoquinolin-1-one hydrochloride], at PARP-1 FL, the Kd was < 0.01 µM and the DC50 is < 0.25 µM. At PARP-2 FL, this compound registered a Kd of 0.51 µM and a DC50 of 1.16 µM. This compound displayed a DC50 at PARP-3 FL of 0.33 µM. Further, in data set [1], the IC50 came to 0.11 µM. In data set [2], the “F on AUC” value amounted to 27%, the clearance came out at 59.9 mL/min/kg, the Vd was 4.1 L/kg and the area under the curve (AUC) is 2.39 µM·h. Moreover, in data set [2], the half-life was 1.11 h.

As to `O=c1[nH]c(-c2ccc(O)cc2)c(OCCCN2CCCCC2)c2ccccc12` [Compound 27, 3-(4-Hydroxy-phenyl)-4-(3-piperidin-1-yl-propoxy)-2H-isoquinolin-1-one], the Kd is < 0.03 µM on PARP-1 FL and 0.33 µM on PARP-2 FL. The DC50 at PARP-1 FL was < 0.25 µM; at PARP-2 FL, 0.77 µM; at PARP-3 FL, 0.55 µM. Besides, the concentration for half-maximal inhibition (IC50) in data set [1] was 0.25 µM.

Regarding `CN1CCN(CCOc2c(-c3ccccc3)[nH]c(=O)c3cc(F)ccc23)CC1` [Compound 89, 7-fluoro-4-[2-(4-methylpiperazin-1-yl)ethoxy]-3-phenylisoquinolin-1(2H)-one trifluoroacetate], the results for the DC50 at PARP-1 FL, on PARP-2 FL and on PARP-3 FL were 0.4 µM, > 10 µM and 6.45 µM, respectively. In data set [1], this compound came in with an IC50 of 7.55 µM.

As for `CCN(CC)CCOc1c(-c2ccccc2)[nH]c(=O)c2cc(F)ccc12` [Compound 88, 4-[2-(diethylamino)ethoxy]-7-fluoro-3-phenylisoquinolin-1(2H)-one trifluoroacetate], the DC50 at PARP-1 FL is 1.59 µM; at PARP-2 FL, 5.85 µM; on PARP-3 FL, > 10 µM. In addition, the 50% inhibitory concentration (IC50) in data set [1] worked out at 3.44 µM.

As to `COc1ccc(-c2[nH]c(=O)c3ccccc3c2OCCN)cc1.Cl` [Compound 24, 4-(2-Amino-ethoxy)-3-(4-methoxy-phenyl)-2H-isoquinolin-1-one hydrochloride], at PARP-1 FL, the dissociation constant Kd is < 0.03 µM and the DC50 is 0.32 µM. This compound also had a DC50 on PARP-3 FL of 0.37 µM. For the same compound, 0.06 µM corresponded to half-maximal inhibition in data set [1] (IC50). In data set [2], the “F on AUC” value was 50%, the clearance was 41.1 mL/min/kg, the Vd stood at 3 L/kg and the AUC was determined as 6.97 µM·h. Besides, in data set [2], the half-life was 2.71 h.

Take `COc1cccc(-c2[nH]c(=O)c3cc(F)ccc3c2OCCN)c1` [Compound 46, 4-(2-Amino-ethoxy)-7-fluoro-3-(3-methoxy-phenyl)-2H-isoquinolin-1-one hydrochloride]: the Kd on PARP-1 FL is < 0.01 µM; at PARP-2 FL, 3.61 µM. The DC50 at PARP-1 FL is < 0.25 µM; on PARP-2 FL, 5.99 µM; on PARP-3 FL, 0.37 µM. Besides, the IC50 in data set [1] is 0.06 µM.

In the case of `NCCOc1c(-c2cccc(O)c2)[nH]c(=O)c2ccccc12` [Compound 32, 4-(2-Amino-ethoxy)-3-(3-hydroxy-phenyl)-2H-isoquinolin-1-one hydrochloride], the Kd is < 0.03 µM at PARP-1 FL and 0.45 µM at PARP-2 FL. Besides, the DC50 was < 0.25 µM on PARP-1 FL, 0.79 µM on PARP-2 FL and 0.28 µM at PARP-3 FL. In data set [1], the IC50 is 0.2 µM.

For `O=c1[nH]c(-c2cccc(O)c2)c(OCCCN2CCCCC2)c2ccccc12` [Compound 33, 3-(3-Hydroxy-phenyl)-4-(3-piperidin-1-yl-propoxy)-2H-isoquinolin-1-one], on PARP-1 FL, the equilibrium dissociation constant (Kd) was < 0.03 µM and the DC50 was < 0.25 µM. At PARP-2 FL, the affinity, expressed as Kd, was 0.25 µM and the DC50 was determined as 0.58 µM. On PARP-3 FL, this compound displayed a DC50 of 0.34 µM. The compound further displayed an IC50 in data set [1] of 0.41 µM. In data set [2], the “F on AUC” value was 24%, the clearance was determined as 176 mL/min/kg, the Vd is 2.9 L/kg and the AUC turned out to be 0.64 µM·h. Also, in data set [2], the half-life was 1.11 h.

As to `NCCOc1c(-c2ccc(O)cc2)[nH]c(=O)c2cc(F)ccc12` [Compound 28, 4-(2-Amino-ethoxy)-7-fluoro-3-(4-hydroxy-phenyl)-2H-isoquinolin-1-one hydrobromide], at PARP-1 FL, the equilibrium dissociation constant (Kd) was < 0.03 µM. Further, the DC50 was < 0.25 µM on PARP-1 FL, 1.1 µM on PARP-2 FL and 0.47 µM at PARP-3 FL. In addition, 0.4 µM corresponded to half-maximal inhibition in data set [1] (IC50).
